Where two headings read alike, the source gives them in different places.
Biological target: T1, Full length wild-type cereblon CRBN (Homo sapiens, UniProt Q96SW2)
T1 construct: Full length wild-type cereblon CRBN (80.0 nM, 10 μL) was incubated in assay buffer
Assay: Fluorescence polarization (FP) assay, cereblon binding
Excerpt: Compound activity was monitored in a fluorescence polarization (FP) homogeneous assay using 1-[5-({2-[2-(2-{[2-(2,6-dioxopiperidin-3-yl)-1,3-dioxo-2,3-dihydro-1H-isoindol-4-yl]oxy}acetamido)ethoxy]ethyl}carbamoyl)pentyl]-3,3-dimethyl-2-[(1E,3E)-5-[(2E)-1,3,3-trimethyl-5-sulfo-2,3-dihydro-1H-indol-2-ylidene]penta-1,3-dien-1-yl]-3H-indol-1-ium-5-sulfonate as a fluorescent probe. Unless otherwise stated, all reagents were purchased from Sigma Aldrich. […] Full length wild-type cereblon CRBN (80.0 nM, 10 μL) was incubated in assay buffer containing 20 mM HEPES (pH 8.0), […], 0.5 mM TCEP and 0.05% Tween 20 in the presence or absence of compound (300 nL). Inhibitors were stored as 10 mM DMSO stocks in an inert environment (low humidity, dark, low oxygen, room temperature) using the Storage Pod System. […] Following incubation at room temperature for 30 min, the assay was initiated by dispensing the probe to a final concentration of […] (2.5 nL of a 20 μM stock) using the Echo E5XX. […] The FP signal was subsequently normalized to the no-compound control (i.e., DMSO). Analysis and IC50 values were derived using Dotmatics (Dotmatics UK) software.

[1] = bounds stated in the text lists b2059-b2061, read-out: IC50 value
[2] = cereblon binding, class code, read-out: rFP IC50
[3] = IC50 value, bounds stated in the text lists b2059-b2061
[4] = rFP IC50 [nM], cereblon binding, class code

T1 sequence (Q96SW2 whole entry): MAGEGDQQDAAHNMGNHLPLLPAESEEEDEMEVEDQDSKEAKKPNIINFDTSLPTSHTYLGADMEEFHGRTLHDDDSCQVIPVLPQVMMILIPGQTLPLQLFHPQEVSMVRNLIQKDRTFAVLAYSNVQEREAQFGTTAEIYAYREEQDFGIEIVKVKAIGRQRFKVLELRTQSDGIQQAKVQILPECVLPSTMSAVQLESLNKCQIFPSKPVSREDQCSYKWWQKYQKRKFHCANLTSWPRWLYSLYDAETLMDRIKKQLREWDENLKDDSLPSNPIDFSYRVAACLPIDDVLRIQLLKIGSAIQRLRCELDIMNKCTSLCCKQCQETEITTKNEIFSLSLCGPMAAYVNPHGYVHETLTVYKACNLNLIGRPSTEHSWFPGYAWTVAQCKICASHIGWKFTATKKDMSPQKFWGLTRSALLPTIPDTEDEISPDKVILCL

Row | Compound | IC50 [1] [nM] | IC50 [2] [nM] | IC50 [3] [nM] | IC50 [4] [nM]
1 | CC(NC(=O)OCc1ccc2c(c1)C(=O)N(C1CCC(=O)NC1=O)C2)c1ccccc1 (stereo not shown) [Compound 102] | < 1700 | 500 to 1100 | – | –
2 | COc1ccccc1-c1ccc(NC(=O)OCc2ccc3c(c2)C(=O)N(C2CCC(=O)NC2=O)C3)cn1 (stereo not shown) [Compound 87] | < 1700 | 500 to 1100 | – | –
3 | O=C1CCC(N2Cc3ccc(COC(=O)Nc4cccc(OC(F)F)c4)cc3C2=O)C(=O)N1 (stereo not shown) [Compound 5] | < 1700 | 1100 to 1700 | – | –
4 | O=C1CCC(N2Cc3ccc(COC(=O)NC4COC(c5ccccc5)OC4)cc3C2=O)C(=O)N1 (stereo not shown) [Compound 130] | – | – | < 1100 | 500 to 1100
5 | O=C1CCC(N2Cc3ccc(COC(=O)N4CCN(c5ccccc5)CC4)cc3C2=O)C(=O)N1 (stereo not shown) [Compound 36] | < 1100 | – | – | –
6 | Cc1cc(F)c(NC(=O)OCc2ccc3c(c2)C(=O)N(C2CCC(=O)NC2=O)C3)cc1Cl (stereo not shown) [Compound 141, (2-(2,6-dioxopiperidin-3-yl)-3-oxoisoindolin-5-yl)methyl (5-chloro-2-fluoro-4-methylphenyl)carbamate] | < 1100 | 500 to 1100 | – | –
7 | O=C1CCC(N2Cc3ccc(COC(=O)Nc4ccc5c(c4)OC(F)(F)O5)cc3C2=O)C(=O)N1 (stereo not shown) [Compound 79] | < 1700 | 1100 to 1700 | – | –
8 | CC1COc2cc(NC(=O)OCc3ccc4c(c3)C(=O)N(C3CCC(=O)NC3=O)C4)ccc21 (stereo not shown) [Compound 103] | < 1700 | 500 to 1100 | – | –
9 | O=C1CCC(N2Cc3ccc(COC(=O)Nc4cc(CN5CC6CC5CO6)cc(OC(F)F)c4)cc3C2=O)C(=O)N1 (stereo not shown) [Compound 100] | < 1700 | 500 to 1100 | – | –
10 | CC(C)(C)C12CC(NC(=O)OCc3ccc4c(c3)C(=O)N(C3CCC(=O)NC3=O)C4)(C1)C2 (stereo not shown) [Compound 120, (2-(2,6-dioxopiperidin-3-yl)-3-oxoisoindolin-5-yl)methyl (3-(tert-butyl)bicyclo[1.1.1]pentan-1-yl)carbamate] | < 1100 | 500 to 1100 | – | –
11 | O=C1CCC(N2Cc3ccc(COC(=O)Nc4cc(CN5CCOCC5)cc(OC(F)(F)F)c4)cc3C2=O)C(=O)N1 (stereo not shown) [Compound 4] | < 1700 | 500 to 1100 | – | –
12 | O=C1CCC(N2Cc3ccc(COC(=O)Nc4cc(F)c(F)c(Cl)c4)cc3C2=O)C(=O)N1 (stereo not shown) [Compound 132] | – | – | < 1100 | 500 to 1100
13 | Cc1cc(NC(=O)OCc2ccc3c(c2)C(=O)N(C2CCC(=O)NC2=O)C3)cc(C)c1C#N (stereo not shown) [Compound 108] | – | – | < 1100 | –
14 | Cc1cc(NC(=O)OCc2ccc3c(c2)C(=O)N(C2CCC(=O)NC2=O)C3)cc(C(C)(C)C)n1 (stereo not shown) [Compound 118] | – | – | < 1100 | 500 to 1100
15 | COc1ccccc1CNC(=O)OCc1ccc2c(c1)C(=O)N(C1CCC(=O)NC1=O)C2 (stereo not shown) [Compound 97] | < 1700 | 500 to 1100 | – | –
16 | Cc1c(Cl)cc(NC(=O)OCc2ccc3c(c2)C(=O)N(C2CCC(=O)NC2=O)C3)cc1OC1CCNC1 (stereo not shown) [Compound 44] | < 1700 | 500 to 1100 | – | –
17 | CC(C)(C)c1ccc(NC(=O)OCc2ccc3c(c2)C(=O)N(C2CCC(=O)NC2=O)C3)c(F)c1 (stereo not shown) [Compound 142, (2-(2,6-dioxopiperidin-3-yl)-3-oxoisoindolin-5-yl)methyl (4-(tert-butyl)-2-fluorophenyl)carbamate] | < 1100 | 500 to 1100 | – | –
18 | O=C1CCC(N2Cc3ccc(COC(=O)Nc4cc(OCCN5CCOCC5)cc(OC(F)(F)F)c4)cc3C2=O)C(=O)N1 (stereo not shown) [Compound 106] | < 1700 | 500 to 1100 | – | –
19 | CC(C)(C)c1cccc(NC(=O)OCc2ccc3c(c2)C(=O)N(C2CCC(=O)NC2=O)C3)c1 (stereo not shown) [Compound 153, (2-(2,6-dioxopiperidin-3-yl)-3-oxoisoindolin-5-yl)methyl (3-(tert-butyl)phenyl)carbamate] | < 1100 | 500 to 1100 | – | –
20 | Cc1ccc(OC(F)(F)F)cc1NC(=O)OCc1ccc2c(c1)C(=O)N(C1CCC(=O)NC1=O)C2 (stereo not shown) [Compound 128] | – | – | < 1100 | 500 to 1100
21 | Cc1c(Cl)cc(NC(=O)OCc2ccc3c(c2)C(=O)N(C2CCC(=O)NC2=O)C3)cc1OC1CCN(C)C1 (stereo not shown) [Compound 68] | < 1700 | 500 to 1100 | – | –

Further lines, with some results ahead:

Row | IC50 [1] [nM] | IC50 [2] [nM] | Compound | IC50 [3] [nM] | IC50 [4] [nM]
22 | < 1100 | – | O=C1CCC(N2Cc3ccc(COC(=O)Nc4ccc(C5COC5)cc4)cc3C2=O)C(=O)N1 (stereo not shown) [Compound 81] | – | –
23 | < 1100 | – | O=C1CCC(N2Cc3ccc(COC(=O)N4CCCCC4)cc3C2=O)C(=O)N1 (stereo not shown) [Compound 23] | – | –
24 | < 1100 | 500 to 1100 | Cc1ccc(NC(=O)OCc2ccc3c(c2)C(=O)N(C2CCC(=O)NC2=O)C3)cc1F (stereo not shown) [Compound 133, (2-(2,6-dioxopiperidin-3-yl)-3-oxoisoindolin-5-yl)methyl (3-fluoro-4-methylphenyl)carbamate] | – | –
25 | < 1700 | 500 to 1100 | Cc1cc(C)cc(NC(=O)OCc2ccc3c(c2)C(=O)N(C2CCC(=O)NC2=O)C3)c1 (stereo not shown) [Compound 8] | – | –
26 | < 1100 | – | CC1(c2ccc(NC(=O)OCc3ccc4c(c3)C(=O)N(C3CCC(=O)NC3=O)C4)cn2)CC1 (stereo not shown) [Compound 152, (2-(2,6-dioxopiperidin-3-yl)-3-oxoisoindolin-5-yl)methyl (6-(1-methylcyclopropyl)pyridin-3-yl)carbamate] | – | –
27 | < 1700 | 1100 to 1700 | CCc1cc(NC(=O)OCc2ccc3c(c2)C(=O)N(C2CCC(=O)NC2=O)C3)cc(C)n1 (stereo not shown) [Compound 71] | – | –
28 | < 1700 | 1100 to 1700 | O=C1CCC(N2Cc3ccc(COC(=O)Nc4cc(F)cc(Cl)c4)cc3C2=O)C(=O)N1 (stereo not shown) [Compound 12] | – | –
29 | < 1700 | 500 to 1100 | O=C1CCC(N2Cc3ccc(COC(=O)Nc4cccc(OC5CC5)c4)cc3C2=O)C(=O)N1 (stereo not shown) [Compound 93] | – | –
30 | < 1700 | 500 to 1100 | O=C1CCC(N2Cc3ccc(COC(=O)Nc4ccc(N5CCOCC5)nc4)cc3C2=O)C(=O)N1 (stereo not shown) [Compound 76] | – | –
31 | < 1100 | – | O=C1CCC(N2Cc3ccc(COC(=O)Nc4ccc(N5CCCCC5)nn4)cc3C2=O)C(=O)N1 (stereo not shown) [Compound 75] | – | –
32 | < 1700 | 500 to 1100 | O=C1CCC(N2Cc3ccc(COC(=O)Nc4ccc(C5CC5)cc4)cc3C2=O)C(=O)N1 (stereo not shown) [Compound 39] | – | –
33 | < 1100 | 500 to 1100 | O=C1CCC(N2Cc3ccc(COC(=O)Nc4ccccc4)cc3C2=O)C(=O)N1 (stereo not shown) [Compound 138, (2-(2,6-dioxopiperidin-3-yl)-3-oxoisoindolin-5-yl)methyl phenylcarbamate] | – | –
34 | < 1700 | 500 to 1100 | O=C1CCC(N2Cc3ccc(COC(=O)N4CCCC4)cc3C2=O)C(=O)N1 (stereo not shown) [Compound 26] | – | –
35 | < 1700 | 500 to 1100 | Cc1c(Cl)cc(NC(=O)OCc2ccc3c(c2)C(=O)N(C2CCC(=O)NC2=O)C3)cc1CN1CCOCC1 (stereo not shown) [Compound 2] | – | –
36 | < 1700 | 500 to 1100 | Cc1cc(NC(=O)OCc2ccc3c(c2)C(=O)N(C2CCC(=O)NC2=O)C3)cc(C)n1 (stereo not shown) [Compound 7] | – | –
37 | < 1700 | 1100 to 1700 | O=C1CCC(N2Cc3ccc(COC(=O)Nc4ccc(F)c(Cl)c4)cc3C2=O)C(=O)N1 (stereo not shown) [Compound 9] | – | –
38 | < 1100 | – | O=C1CCC(N2Cc3ccc(COC(=O)Nc4cnc(N5CCCCC5)cn4)cc3C2=O)C(=O)N1 (stereo not shown) [Compound 94] | – | –
39 | < 1100 | – | O=C1CCC(N2Cc3ccc(COC(=O)Nc4ccc(N5CCC(F)(F)CC5)nc4)cc3C2=O)C(=O)N1 (stereo not shown) [Compound 78] | – | –
40 | < 1700 | 1100 to 1700 | O=C1CCC(N2Cc3ccc(COC(=O)Nc4cc(CN5CCOCC5)cc(OC(F)F)c4)cc3C2=O)C(=O)N1 (stereo not shown) [Compound 95] | – | –
41 | < 1700 | 500 to 1100 | O=C1CCC(N2Cc3ccc(COC(=O)Nc4cnc(N5CCCCC5)nc4)cc3C2=O)C(=O)N1 (stereo not shown) [Compound 64] | – | –
42 | < 1100 | – | CN1CCN(c2ccc(NC(=O)OCc3ccc4c(c3)C(=O)N(C3CCC(=O)NC3=O)C4)cn2)CC1 (stereo not shown) [Compound 82] | – | –
43 | < 1100 | – | O=C1CCC(N2Cc3ccc(COC(=O)Nc4ccc(N5CCC5)nc4)cc3C2=O)C(=O)N1 (stereo not shown) [Compound 107] | – | –
44 | < 1700 | 500 to 1100 | O=C1CCC(N2Cc3ccc(COC(=O)NC4CCCC4)cc3C2=O)C(=O)N1 (stereo not shown) [Compound 29] | – | –
45 | < 1700 | 500 to 1100 | CCc1cc(NC(=O)OCc2ccc3c(c2)C(=O)N(C2CCC(=O)NC2=O)C3)cnc1C (stereo not shown) [Compound 55] | – | –
46 | < 1700 | 1100 to 1700 | O=C1CCC(N2Cc3ccc(COC(=O)Nc4cc(OCCN5CCOCC5)cc(OC(F)F)c4)cc3C2=O)C(=O)N1 (stereo not shown) [Compound 96] | – | –
47 | < 1100 | – | CN1CCC(COc2cc(Cl)cc(NC(=O)OCc3ccc4c(c3)C(=O)N(C3CCC(=O)NC3=O)C4)c2)C1 (stereo not shown) [Compound 40] | – | –
48 | < 1100 | – | C[C@H]1CCCN1c1ccc(NC(=O)OCc2ccc3c(c2)C(=O)N(C2CCC(=O)NC2=O)C3)cn1 (stereo partly drawn) [Compound 156, (2-(2,6-dioxopiperidin-3-yl)-3-oxoisoindolin-5-yl)methyl (6-((S)-2-methylpyrrolidin-1-yl)pyridin-3-yl)carbamate] | – | –
49 | < 1100 | – | CC1CCN(c2ccc(NC(=O)OCc3ccc4c(c3)C(=O)N(C3CCC(=O)NC3=O)C4)cn2)C1 (stereo not shown) [Compound 69] | – | –
50 | < 1700 | 1100 to 1700 | O=C1CCC(N2Cc3ccc(COC(=O)NC4CCCCC4)cc3C2=O)C(=O)N1 (stereo not shown) [Compound 28] | – | –
51 | < 1100 | – | N#Cc1cc(Cl)cc(NC(=O)OCc2ccc3c(c2)C(=O)N(C2CCC(=O)NC2=O)C3)c1 (stereo not shown) [Compound 111, (2-(2,6-dioxopiperidin-3-yl)-3-oxoisoindolin-5-yl)methyl (3-chloro-5-cyanophenyl)carbamate] | – | –
